What was measured:
Type in all cases: in vivo
[1] = system: giant foxtail (Setaria faberi); experiment: Test G Post-Emergence Protocol; settings: Setaria faberi, post-emergence, 312 h, read-out: Foxtail, Giant damage rating
In short: (§1)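 Scores run 0 (no damage) to 100 (total damage) and were taken 13 days after spraying. Plants had been raised in pots for 8 days under glasshouse control (24/16 °C, 14 h photoperiod, 65% humidity) and then treated at 15.625, 62.5 or 250 g/ha.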

[2] = system: redroot pigweed (Amaranthus retroflexus); experiment: Test G Post-Emergence Protocol; settings: Amaranthus retroflexus, post-emergence, 312 h, read-out: Pigweed, Redroot damage rating
In short: as §1

[3] = system: velvetleaf (Abutilon theophrasti); experiment: Test G Post-Emergence Protocol; settings: Abutilon theophrasti, post-emergence, 312 h, read-out: Velvetleaf damage rating
In short: as §1

corn (Zea mays) [4] = experiment: Test G Post-Emergence Protocol; settings: Zea mays, post-emergence, 312 h, read-out: Corn damage rating
In short: as §1

[5] = system: ivy-leaved morning glory (Ipomoea hederacea); experiment: Test G Post-Emergence Protocol; settings: Ipomoea, post-emergence, 312 h, read-out: Morningglory, Ivy-leaved damage rating
In short: as §1

[6] = system: barnyardgrass (Echinochloa crus-galli); experiment: Test G Post-Emergence Protocol; settings: Echinochloa crus-galli, post-emergence, 312 h, read-out: Barnyardgrass damage rating
In short: as §1

[7] = system: giant foxtail (Setaria faberi); experiment: Test G Pre-Emergence Protocol; settings: Setaria faberi, pre-emergence, 312 h, evaluated after 13 days
In short: (§2)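 Herbicidal effect was rated 13 days post-application on a scale where 100 equals total damage. Spraying took place the day after sowing, using 15.625, 62.5 or 250 g/ha of compound in a 50:50 acetone/water solution with 0.5% Tween 20.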

[8] = system: redroot pigweed (Amaranthus retroflexus); experiment: Test G Pre-Emergence Protocol; settings: Amaranthus retroflexus, pre-emergence, 312 h, evaluated after 13 days
In short: as §2

[9] = system: velvetleaf (Abutilon theophrasti); experiment: Test G Pre-Emergence Protocol; settings: Abutilon theophrasti, pre-emergence, 312 h, evaluated after 13 days
In short: as §2

corn (Zea mays) [10] = experiment: Test G Pre-Emergence Protocol; settings: Zea mays, pre-emergence, 312 h, evaluated after 13 days
In short: as §2

[11] = system: ivy-leaved morning glory (Ipomoea hederacea); experiment: Test G Pre-Emergence Protocol; settings: Ipomoea, pre-emergence, 312 h, evaluated after 13 days
In short: as §2

[12] = system: barnyardgrass (Echinochloa crus-galli); experiment: Test G Pre-Emergence Protocol; settings: Echinochloa crus-galli, pre-emergence, 312 h, evaluated after 13 days
In short: as §2

[13] = 15.625 g ai/ha, evaluated after 13 days (100=total damage to plant; 0=no damage to plant)
[14] = 62.5 g ai/ha, evaluated after 13 days, 100=total damage to plant, 0=no damage to plant
[15] = 250 g ai/ha, evaluated after 13 days, 100=total damage to plant, 0=no damage to plant

CN1C[C@H](c2cccc(C(F)(F)F)c2)[C@@H](C(=O)Nc2c(O)cccc2F)C1=O (racemic) [Compound 1808]
30%: pest or weed control at 62.5 g/ha [1, 14]
20%: pest or weed control at 62.5 g/ha [6, 14] | pest or weed control at 62.5 g/ha ([7]; 62.5 g ai/ha, 100=total damage to plant, 0=no damage to plant, read-out: Foxtail, Giant damage rating) | pest or weed control at 250 g/ha ([8]; 250 g ai/ha, read-out: Pigweed, Redroot damage rating (100=total damage to plant; 0=no damage to plant))
10%: pest or weed control at 250 g/ha ([9]; 250 g ai/ha, read-out: Velvetleaf damage rating (100=total damage to plant; 0=no damage to plant)) | pest or weed control at 250 g/ha ([11]; 250 g ai/ha, read-out: Morningglory, Ivy-leaved damage rating (100=total damage to plant; 0=no damage to plant))
40%: pest or weed control at 250 g/ha ([12]; 250 g ai/ha, read-out: Barnyardgrass damage rating (100=total damage to plant; 0=no damage to plant))
0%: pest or weed control at 15.625 g/ha [1, 13] | pest or weed control at 15.625 g/ha [2, 13] | pest or weed control at 62.5 g/ha [2, 14] | pest or weed control at 250 g/ha [2, 15] | pest or weed control at 15.625 g/ha [3, 13] | pest or weed control at 62.5 g/ha [3, 14] | pest or weed control at 250 g/ha [3, 15] | plant injury at 15.625 g/ha (corn (Zea mays) [4]; [13]) | plant injury at 62.5 g/ha (corn (Zea mays) [4]; [14]) | plant injury at 250 g/ha (corn (Zea mays) [4]; [15]) | pest or weed control at 15.625 g/ha [5, 13] | pest or weed control at 62.5 g/ha [5, 14] | pest or weed control at 250 g/ha [5, 15] | pest or weed control at 15.625 g/ha [6, 13] | pest or weed control at 15.625 g/ha ([7]; 15.625 g ai/ha, read-out: Foxtail, Giant damage rating (100=total damage to plant; 0=no damage to plant)) | pest or weed control at 15.625 g/ha ([8]; 15.625 g ai/ha, read-out: Pigweed, Redroot damage rating (100=total damage to plant; 0=no damage to plant)) | pest or weed control at 62.5 g/ha ([8]; 62.5 g ai/ha, 100=total damage to plant, 0=no damage to plant, read-out: Pigweed, Redroot damage rating) | pest or weed control at 15.625 g/ha ([9]; 15.625 g ai/ha, read-out: Velvetleaf damage rating (100=total damage to plant; 0=no damage to plant)) | pest or weed control at 62.5 g/ha ([9]; 62.5 g ai/ha, 100=total damage to plant, 0=no damage to plant, read-out: Velvetleaf damage rating) | plant injury at 15.625 g/ha (corn (Zea mays) [10]; 15.625 g ai/ha, read-out: Corn damage rating (100=total damage to plant; 0=no damage to plant)) | plant injury at 62.5 g/ha (corn (Zea mays) [10]; 62.5 g ai/ha, 100=total damage to plant, 0=no damage to plant, read-out: Corn damage rating) | plant injury at 250 g/ha (corn (Zea mays) [10]; 250 g ai/ha, read-out: Corn damage rating (100=total damage to plant; 0=no damage to plant)) | pest or weed control at 15.625 g/ha ([11]; 15.625 g ai/ha, read-out: Morningglory, Ivy-leaved damage rating (100=total damage to plant; 0=no damage to plant)) | pest or weed control at 62.5 g/ha ([11]; 62.5 g ai/ha, 100=total damage to plant, 0=no damage to plant, read-out: Morningglory, Ivy-leaved damage rating) | pest or weed control at 15.625 g/ha ([12]; 15.625 g ai/ha, read-out: Barnyardgrass damage rating (100=total damage to plant; 0=no damage to plant)) | pest or weed control at 62.5 g/ha ([12]; 62.5 g ai/ha, 100=total damage to plant, 0=no damage to plant, read-out: Barnyardgrass damage rating)
70%: pest or weed control at 250 g/ha ([7]; 250 g ai/ha, read-out: Foxtail, Giant damage rating (100=total damage to plant; 0=no damage to plant))
60%: pest or weed control at 250 g/ha [1, 15] | pest or weed control at 250 g/ha [6, 15]

From patent US12077503B2, “Substituted cyclic amides and their use as herbicides” (FMC CORPORATION, priority 2015, dated 2024)
